Data as given in publication PMC6994123, “A mosquito juvenile hormone binding protein (mJHBP) regulates the activation of innate immune defenses and hemocyte development” (PLoS Pathogens, 2020).

Experiments:
mJHBP [1] = molecular target: T1, mJHBP (Aedes aegypti, UniProt Q16Y94); experiment: isothermal titration calorimetry, single-site fit; format: binding; conditions: read-out: Ka
T1 construct: gene 5570847; two OBP domains; gel filtration, Q-Sepharose and Phenyl-Sepharose purified; probably mature protein
T1 sequence (Q16Y94 25-311): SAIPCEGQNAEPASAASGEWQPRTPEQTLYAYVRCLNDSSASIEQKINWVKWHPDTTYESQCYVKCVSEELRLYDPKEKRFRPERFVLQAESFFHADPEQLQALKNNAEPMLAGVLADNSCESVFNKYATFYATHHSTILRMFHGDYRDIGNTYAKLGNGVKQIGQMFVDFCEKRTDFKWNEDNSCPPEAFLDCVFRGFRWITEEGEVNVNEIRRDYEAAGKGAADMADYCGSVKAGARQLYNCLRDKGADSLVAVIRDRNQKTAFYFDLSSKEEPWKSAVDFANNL
Text: isothermal titration calorimetry, single-site fit on mJHBP | wild type mJHBP.

mJHBP [2] = molecular target: T2, mJHBP (Aedes aegypti, UniProt Q16Y94, Y152F); experiment: isothermal titration calorimetry, single-site fit; format: binding; conditions: read-out: Ka (converted)
T2 construct: gene 5570847; two OBP domains; gel filtration, Q-Sepharose and Phenyl-Sepharose purified; probably mature protein
T2 sequence (Q16Y94 25-311 Y152F): T1 sequence (Q16Y94 25-311)
Text: isothermal titration calorimetry, single-site fit on mJHBP | Y129F mutant.

COC(=O)/C=C(\C)CC/C=C(\C)CC[C@H]1OC1(C)C [JH III, juvenile hormone III]
Kd (mJHBP [1]): 100 nM
Kd (mJHBP [2]): 1090 nM
